Source: EP3442964B1, “NOVEL N-[(PYRIMIDINYLAMINO)PROPANYL]-AND N [(PYRAZINYLAMINO)PROPANYL]ARYLCARBOXAMIDES” (Boehringer Ingelheim International GmbH, priority 2016, dated 2017)
pIC50: −log10 of the molar value. Read-outs that look alike come from different tables or passages of the source.

Columns and labels:
[1] = Assay C: metabolic stability in human liver microsomes (human MST); type: in vitro ADME; conditions: pooled human liver microsomes, pH 7.6, 1 µM test compound, 37°C
Description: Stability in human liver microsomes refers to the susceptibility of compounds to biotransformation in the context of selecting and/or designing drugs with favorable pharmacokinetic properties. The primary site of metabolism for many drugs is the liver. Human liver microsomes contain the cytochrome P450s (CYPs), and thus represent a model system for studying drug metabolization in vitro. Enhanced stability in human liver microsomes is associated with several advantages, including increased bioavailability and longer half-life, which can enable lower and less frequent dosing of patients. Thus, enhanced stability in human liver microsomes is a favorable characteristic for compounds that are to be used for drugs.
The metabolic stability of the compounds according to the invention may be investigated as follows: The metabolic degradation of the test compound is assayed at 37°C with pooled human liver microsomes. The final incubation volume of 100 µL per time point contains TRIS buffer pH 7.6 at room temperature (0.1 M), MgCl2 (5 mM), microsomal protein (1 mg/mL) and the test compound at a final concentration of 1 µM. Following a short pre-incubation period at 37°C , the reactions are initiated by addition of beta-nicotinamide adenine dinucleotide phosphate, reduced form (NADPH, 1 mM), and terminated by transferring an aliquot into solvent after different time points. After centrifugation (10000 g, 5 min), an aliquot of the supernatant is assayed by LC-MS/MS for the amount of parent compound. The half-life (t1/2) is determined by the slope of the semi-logarithmic plot of the concentration-time profile.

OX2R [2] = target: T1, OX2R (Homo sapiens, UniProt O43614); conditions: as described in WO2013/187466; agonist 3 nM modified orexin A; cited from earlier work
T1 sequence (O43614 1-444): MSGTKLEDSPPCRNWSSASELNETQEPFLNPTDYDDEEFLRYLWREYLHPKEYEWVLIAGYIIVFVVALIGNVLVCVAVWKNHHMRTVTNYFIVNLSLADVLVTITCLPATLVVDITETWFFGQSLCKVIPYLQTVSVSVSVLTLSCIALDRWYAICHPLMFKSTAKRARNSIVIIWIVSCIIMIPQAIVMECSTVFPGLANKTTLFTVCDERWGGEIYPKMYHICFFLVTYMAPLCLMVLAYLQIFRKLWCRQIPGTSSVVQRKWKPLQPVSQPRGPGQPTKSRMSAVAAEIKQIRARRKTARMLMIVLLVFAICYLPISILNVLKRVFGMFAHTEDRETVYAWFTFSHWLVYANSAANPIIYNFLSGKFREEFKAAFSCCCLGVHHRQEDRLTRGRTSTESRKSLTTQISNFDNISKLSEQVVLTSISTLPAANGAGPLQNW

human orexin 2 receptor = target: T2, human orexin 2 receptor (Homo sapiens, UniProt O43614); type: cell-based; conditions: 0.5 nM Orexin A
T2 sequence (O43614 1-444): T1 sequence (O43614 1-444)
Description: Chem. Genomics 2009, 3, 22-32.

human MDR1 P-gp = target: T3, human MDR1 P-gp (Homo sapiens, UniProt P08183); assay: Assay D: efflux in MDCK cells transfected with the human MDR1 gene; type: in vitro ADME; conditions: MDCK-MDR1 monolayers, pH 7.4, 37°C, read-out: Assay D:MDCK efflux ratio (BA/AB)
T3 construct: expressed in transfected cells; host or cells: MDCK (MDCK-MDR1)
Method: The MDCK assay provides information on the potential of a compound to pass the blood brain barrier. Permeability measurements across polarized, confluent MDCK-MDR1 cell monolayers grown on permeable filter supports are used as an in vitro absorption model: apparent permeability coefficients (PE) of the compounds across the MDCK-MDR1 cell monolayers are measured (pH 7.4, 37°C) in apical-to-basal (AB) and basal-to-apical (BA) transport direction. The AB permeability (PEAB) represents drug absorption from the blood into the brain and the BA permeability (PEBA) drug efflux from the brain back into the blood via both, passive permeability as well as active transport mechanisms mediated by efflux and uptake transporters that are expressed on the MDCK-MDR1 cells, predominantly by the overexpressed human MDR1 P-gp. Identical or similar permeabilities in both transport directions indicate passive permeation, vectorial permeability points to additional active transport mechanisms. Higher PEBA than PEAB (PEBA/PEAB > 5) indicates the involvement of active efflux mediated by MDR1 P-gp, which might compromises the goal to achieve sufficient brain exposure. Therefore this assay provides valuable support for selection of compounds applicable for further in vivo testing. High permeability not limited by efflux at the blood brain barrier is a favourable characteristic for compounds that are to be used for drugs acting primarily in the CNS
Apparent permeability coefficients (PE) of the compounds across the MDCK-MDR1 cell monolayers are measured (pH 7.4, 37°C) in apical-to-basal (AB) and basal-to-apical (BA) transport direction. AB permeability (PEAB) represents drug absorption from the blood into the brain and BA permeability (PEBA) drug efflux from the brain back into the blood via both passive permeability as well as active transport mechanisms mediated by efflux and uptake transporters that are expressed on the MDCK-MDR1 cells, predominantly by the overexpressed human MDR1 P-gp. The compounds are assigned to permeability/absorption classes by comparison of the AB permeabilities with the AB permeabilities of reference compounds with known in vitro permeability and oral absorption in the human. Identical or similar permeabilities in both transport directions indicate passive permeation, vectorial permeability points to additional active transport mechanisms. Higher PEBA than PEAB indicates the involvement of active efflux mediated by MDR1 P-gp. Active transport is concentration- dependently saturable.
MDCK-MDR1 cells (1-2 x 10e5 cells/1 cm2 area) are seeded on filter inserts (Costar transwell polycarbonate or PET filters, 0.4 µm pore size) and cultured (DMEM) for 7 days. Subsequently, the MDR1 expression is boosted by culturing the cells with 5 mM sodium butyrate in full medium for 2 days. Compounds are dissolved in appropriate solvent (like DMSO, 1 -20 mM stock solutions). Stock solutions are diluted with HTP-4 buffer (128.13 mM NaCl, 5.36 mM KCI, 1 mM MgSO4, 1.8 mM CaCl2, 4.17 mM NaHCO3, 1.19 mM Na2HPO4 x 7H2O, 0.41 mM NaH2PO4xH2O, 15 mM HEPES, 20 mM glucose, 0.25 % BSA, pH 7.4) to prepare the transport solutions (0.1 - 300 µM compound, final DMSO <= 0.5 %). The transport solution (TL) is applied to the apical or basolateral donor side for measuring A-B or B-A permeability (3 filter replicates), respectively. The receiver side contains the same buffer as the donor side. Samples are collected at the start and end of experiment from the donor and at various time intervals for up to 2 hours also from the receiver side for concentration measurement by HPLC-MS/MS or scintillation counting. Sampled receiver volumes are replaced with fresh receiver solution.

OX1R [3] = target: T4, OX1R (Homo sapiens, UniProt O43613); assay: OX1R assay as described in WO2016/034882
T4 sequence (O43613 1-425): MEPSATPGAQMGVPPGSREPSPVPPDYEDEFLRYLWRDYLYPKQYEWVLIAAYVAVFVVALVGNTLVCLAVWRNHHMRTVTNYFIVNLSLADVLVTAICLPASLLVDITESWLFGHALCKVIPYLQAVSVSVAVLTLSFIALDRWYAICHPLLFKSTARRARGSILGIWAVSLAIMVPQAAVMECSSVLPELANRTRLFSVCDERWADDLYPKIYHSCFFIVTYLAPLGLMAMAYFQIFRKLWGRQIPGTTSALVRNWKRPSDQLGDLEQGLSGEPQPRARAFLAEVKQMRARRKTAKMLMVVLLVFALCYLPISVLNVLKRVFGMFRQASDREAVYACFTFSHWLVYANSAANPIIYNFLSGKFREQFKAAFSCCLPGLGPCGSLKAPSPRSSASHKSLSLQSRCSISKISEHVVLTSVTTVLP

OX1R [4] = target: T4, OX1R; conditions: cited from earlier work
OX2R [5] = target: T1, OX2R; conditions: cited from earlier work
[6] = read-out: Assay C: Human MST t1/2
[7] = corresponds to pIC50 of Table 1 of WO2016/034882
[8] = corresponds to pIC50 of Table 3 of WO2016/034882
[9] = from values of Table 3 of WO2016/034882

T3 sequence (P08183 whole entry): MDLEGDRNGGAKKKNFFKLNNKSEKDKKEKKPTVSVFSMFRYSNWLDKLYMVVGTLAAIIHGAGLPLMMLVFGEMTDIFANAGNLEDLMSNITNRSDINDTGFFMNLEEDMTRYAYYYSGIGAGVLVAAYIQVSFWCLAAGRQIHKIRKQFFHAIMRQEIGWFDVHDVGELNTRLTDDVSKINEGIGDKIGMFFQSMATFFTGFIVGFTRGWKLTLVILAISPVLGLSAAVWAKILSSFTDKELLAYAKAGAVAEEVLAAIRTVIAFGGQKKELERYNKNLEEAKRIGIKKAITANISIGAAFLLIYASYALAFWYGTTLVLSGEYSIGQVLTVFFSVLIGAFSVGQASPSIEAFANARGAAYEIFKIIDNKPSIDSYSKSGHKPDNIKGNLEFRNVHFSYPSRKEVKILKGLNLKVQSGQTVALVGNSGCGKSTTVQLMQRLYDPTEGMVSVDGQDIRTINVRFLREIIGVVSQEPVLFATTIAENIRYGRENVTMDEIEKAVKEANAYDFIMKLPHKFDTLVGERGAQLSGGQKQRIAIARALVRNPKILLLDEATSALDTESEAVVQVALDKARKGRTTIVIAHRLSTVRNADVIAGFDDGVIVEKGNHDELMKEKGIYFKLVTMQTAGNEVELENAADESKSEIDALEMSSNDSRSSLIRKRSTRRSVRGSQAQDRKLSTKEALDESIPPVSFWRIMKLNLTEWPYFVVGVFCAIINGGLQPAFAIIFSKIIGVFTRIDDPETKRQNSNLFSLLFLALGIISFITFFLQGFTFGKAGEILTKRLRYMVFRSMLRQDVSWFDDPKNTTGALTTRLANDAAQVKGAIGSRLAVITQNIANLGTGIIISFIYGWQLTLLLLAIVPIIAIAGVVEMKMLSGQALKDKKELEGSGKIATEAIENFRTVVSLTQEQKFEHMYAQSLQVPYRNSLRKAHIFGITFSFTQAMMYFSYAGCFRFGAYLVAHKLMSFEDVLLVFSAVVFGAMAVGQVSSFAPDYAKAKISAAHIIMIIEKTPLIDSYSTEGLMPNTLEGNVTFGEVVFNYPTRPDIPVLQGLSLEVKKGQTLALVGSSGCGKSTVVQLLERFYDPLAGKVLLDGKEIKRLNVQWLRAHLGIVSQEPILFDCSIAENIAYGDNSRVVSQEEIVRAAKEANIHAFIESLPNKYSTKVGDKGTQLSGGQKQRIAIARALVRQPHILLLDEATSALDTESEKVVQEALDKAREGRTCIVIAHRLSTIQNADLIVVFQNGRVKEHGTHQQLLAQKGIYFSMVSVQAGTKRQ

Row | SMILES | half-life at 1 µM [1, 6] [min] | efflux ratio (human MDR1 P-gp) | OX2R pIC50 (OX2R [5]; Table 3 of WO2016/034882) | pIC50 (OX2R [5]; [8]) | other results
1 | C[C@@H](Cn1ccc(-c2ccc(F)cn2)n1)N(C)C(=O)c1cc(F)ccc1-c1ncccn1 [Example 5 in WO2013/187466, reference compound] | – | – | – | – | half-life at 1 µM ([1]; read-out: Data as determined in Assay C: Human MST t1/2): 30 min; pIC50 (OX2R [2]): 7.12
2 | CCN(C(=O)c1cccc(F)c1-n1nccn1)[C@@H](C)CNc1cnc(C(F)(F)F)cn1 [Example 24] | 61 | 3 to 5 | – | – | Kb (human orexin 2 receptor): 10 nM
3 | CC[C@@H](CNc1cnc(C(F)(F)F)cn1)N(C)C(=O)c1cc(Cl)ccc1-n1nccn1 [Example 40 in WO2016/034882] | 9 | < 3 | – | – | OX2R IC50/OX1R IC50 (OX1R [3]; from values of Table 1 of WO2016/034882): Table 1: 156; pIC50 (OX1R [4]; [7]): 7.80; pIC50 (OX2R [5]; [7]): 5.60
4 | CC[C@@H](CNc1ncc(C(F)(F)F)cn1)N(C)C(=O)c1nc(C)ccc1-n1nccn1 [Example 46 in WO2016/034882] | 32 | < 3 | < 5.0 | ≤ 5.00 | pIC50 (OX1R [4]; [7]): 7.70; OX2R pIC50 (OX2R [5]; Table 1 of WO2016/034882): 5.1; OX2R pIC50 (OX2R [5]; Table 2 of WO2016/034882): < 5.0; pIC50 (OX2R [5]; corresponds to pIC50 of Table 2 of WO2016/034882): < 5.00
5 | CC[C@@H](CNc1ncc(C(F)(F)F)cn1)N(CC)C(=O)c1nc(C)ccc1-n1nccn1 [Example 73 in WO2016/034882] | 11 | – | < 6.0 | < 6.00 | –
6 | CC[C@@H](CNc1ncc(C(F)(F)F)cn1)N(C)C(=O)c1nc(C)ccc1-c1ncccn1 [Example 84 in WO2016/034882] | 41 | < 3 | 6.0 | 6.00 | –
7 | CC[C@@H](CNc1ncc(C(F)(F)F)cn1)N(C)C(=O)c1nc(C)ccc1-n1cccn1 [Example 90 in WO2016/034882] | 26 | < 3 | < 6.0 | < 6.00 | Kb (human orexin 2 receptor): 974 nM; OX2R IC50/OX1R IC50 (OX1R [3]; [9]): Table 3: >526; pIC50 (OX1R [4]; [8]): 8.72
8 | CC[C@@H](CNc1ncc(C(F)(F)F)cn1)N(C)C(=O)c1c(F)cccc1-n1nccn1 [Example 91 in WO2016/034882] | > 120 | < 3 | < 5.1 | ≤ 5.10 | OX2R IC50/OX1R IC50 (OX1R [3]; [9]): Table 3: 318; pIC50 (OX1R [4]; [8]): 7.60
